# Results taken from ChEMBL document CHEMBL1158581, “Synthesis and evaluation of new N6-substituted adenosine-5'-N-methylcarboxamides as A3 adenosine receptor agonists” (Bioorg Med Chem, 2010).
# Active and inactive are the calls of the source. No cut-off for these calls is given here.
# Key:
# Adenosine receptor A1 = biological target: T1, Adenosine receptor A1 (Homo sapiens, UniProt P30542); assay: Displacement of [125I]ABA from human recombinant adenosine A1 receptor by rapid filtration technique
# T1 sequence (P30542 whole entry): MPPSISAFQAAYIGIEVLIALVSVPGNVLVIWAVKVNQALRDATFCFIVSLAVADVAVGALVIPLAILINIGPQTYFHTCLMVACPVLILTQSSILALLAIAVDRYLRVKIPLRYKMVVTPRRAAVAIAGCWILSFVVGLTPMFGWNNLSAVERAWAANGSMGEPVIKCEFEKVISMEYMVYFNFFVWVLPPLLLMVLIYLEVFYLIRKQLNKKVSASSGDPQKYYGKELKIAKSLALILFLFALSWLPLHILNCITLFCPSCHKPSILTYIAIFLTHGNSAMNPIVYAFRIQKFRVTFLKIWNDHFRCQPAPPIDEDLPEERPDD
# Adenosine receptor A2a [1] = biological target: T2, Adenosine receptor A2a (Homo sapiens, UniProt P29274); assay: Displacement of [3H]ZM241385 from human recombinant adenosine A2A receptor by rapid filtration technique
# Adenosine receptor A3 [2] = biological target: T3, Adenosine receptor A3 (Homo sapiens, UniProt P0DMS8); assay: Displacement of [125I]ABA from human recombinant adenosine A3 receptor by rapid filtration technique
# T3 sequence (P0DMS8 whole entry): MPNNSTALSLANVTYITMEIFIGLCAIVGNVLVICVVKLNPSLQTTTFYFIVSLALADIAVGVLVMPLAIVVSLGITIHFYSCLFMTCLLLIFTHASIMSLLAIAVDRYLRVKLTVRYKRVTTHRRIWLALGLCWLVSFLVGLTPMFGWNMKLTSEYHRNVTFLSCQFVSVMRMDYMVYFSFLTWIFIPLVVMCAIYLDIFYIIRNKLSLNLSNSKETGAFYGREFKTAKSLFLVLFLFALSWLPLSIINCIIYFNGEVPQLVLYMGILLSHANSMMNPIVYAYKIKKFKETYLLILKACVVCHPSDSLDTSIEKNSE
# [3] = biological target: Adenosine receptors; A1 & A3 (Homo sapiens) (UniProt P30542+P0DMS8); assay: Selectivity ratio of Ki for human recombinant adenosine A1 receptor to Ki for human recombinant adenosine A3 receptor
# H9c2 [4] = assay: Cardioprotective effect against hypoxic simulated ischemia in rat H9c2 cells assessed as reduction in cell death at 100 nM after 12 hrs by propidium iodide staining-based inverted microscopy; type: functional; details: for inhibition at 0.1 µM: H9c2, 12 h
# H9c2 [5] = assay: Cardioprotective effect against hypoxic simulated ischemia in rat H9c2 cells assessed as reduction in cell death at 10 nM after 12 hrs by propidium iodide staining-based inverted microscopy; type: functional
# H9c2 [6] = assay: Cardioprotective effect against hypoxic simulated ischemia in rat H9c2 cells assessed as reduction in cell death at 100 nM after 12 hrs by propidium iodide staining-based inverted microscopy in presence of adenosine A3 receptor antagonist MRS-1191; type: functional
# Adenosine receptor A2a [7] = biological target: T2, Adenosine receptor A2a; assay: Displacement of [3H]ZM241385 from human recombinant adenosine A2A receptor at 10 uM by rapid filtration technique
# Adenosine receptor A3 [8] = biological target: T3, Adenosine receptor A3; assay: Binding affinity to adenosine A3 receptor
# [9] = Selectivity ratio of Ki for adenosine A1 receptor to Ki for adenosine A3 receptor
# T2 sequence (P29274 whole entry): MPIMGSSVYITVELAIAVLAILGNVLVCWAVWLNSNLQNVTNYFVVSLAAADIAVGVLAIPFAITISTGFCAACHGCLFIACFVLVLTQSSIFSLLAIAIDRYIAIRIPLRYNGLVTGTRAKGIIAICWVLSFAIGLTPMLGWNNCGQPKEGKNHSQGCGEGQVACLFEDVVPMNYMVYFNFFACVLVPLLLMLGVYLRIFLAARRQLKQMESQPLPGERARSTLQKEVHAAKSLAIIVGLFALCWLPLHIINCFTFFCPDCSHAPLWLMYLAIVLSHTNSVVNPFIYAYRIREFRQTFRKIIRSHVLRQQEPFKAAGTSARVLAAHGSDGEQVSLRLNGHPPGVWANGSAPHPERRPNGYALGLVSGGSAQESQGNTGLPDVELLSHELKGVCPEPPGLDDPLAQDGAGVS
Compound,Ki (Adenosine receptor A1) [nM],Ki (Adenosine receptor A2a [1]) [nM],Ki (Adenosine receptor A3 [2]) [nM],Ratio Ki [3],inhibition (H9c2 [4]),inhibition (H9c2 [5]),inhibition (H9c2 [6]),inhibition (Adenosine receptor A2a [7]) [%],Ki (Adenosine receptor A3 [8]) [nM],Ratio Ki [9],inhibition at 0.1 µM (H9c2 [4]) [%]
CNC(=O)[C@H]1O[C@@H](n2cnc3c(Nc4ccc(CCNC(=O)c5cc(C(C)(C)C)cc(C(C)(C)C)c5)cc4)ncnc32)[C@H](O)[C@@H]1O,245,> 10000,2.25,109,Active,inactive,inactive,–,–,–,–
CNC(=O)[C@H]1O[C@@H](n2cnc3c(Nc4ccc(CCNC(=O)c5ccc6c(c5)C(C)(C)N([O])C6(C)C)cc4)ncnc32)[C@H](O)[C@@H]1O,53.1,> 10000,25,2.1,–,–,–,–,–,–,–
CNC(=O)[C@H]1O[C@@H](n2cnc3c(NCC4CC(C)(C)N([O])C4(C)C)ncnc32)[C@H](O)[C@@H]1O (stereo partly drawn),570,> 10000,1020,0.56,–,–,–,–,–,–,–
CC1(C)c2ccc(CNC3NC=Nc4c3ncn4[C@@H]3O[C@H](CO)[C@@H](O)[C@H]3O)cc2C(C)(C)N1[O] (stereo partly drawn),1140,> 10000,280,4.1,–,–,–,–,–,–,–
CNC(=O)[C@H]1O[C@@H](n2cnc3c(NCc4ccc(NC(=O)CCC(=O)NCCc5cc(C(C)(C)C)c(O)c(C(C)(C)C)c5)cc4)ncnc32)[C@H](O)[C@@H]1O,42.1,> 10000,2.22,19,–,–,–,–,–,–,–
CC(C)(C)c1cc(CCNc2ncnc3c2ncn3[C@@H]2O[C@H](CO)[C@@H](O)[C@H]2O)cc(C(C)(C)C)c1O,150,–,30,5,–,–,–,20,–,–,–
CNC(=O)[C@H]1O[C@@H](n2cnc3c(NCCc4cc(C(C)(C)C)c(O)c(C(C)(C)C)c4)ncnc32)[C@H](O)[C@@H]1O,620,> 10000,9,69,–,–,–,–,–,–,–
CNC(=O)[C@H]1O[C@@H](n2cnc3c(NCc4ccc5c(c4)C(C)(C)N([O])C5(C)C)ncnc32)[C@H](O)[C@@H]1O,1290,> 10000,320,4,–,–,–,–,–,–,–
CNC(=O)[C@H]1O[C@@H](n2cnc3c(NC4CC(C)(C)N([O])C(C)(C)C4)ncnc32)[C@H](O)[C@@H]1O,1890,> 10000,4160,0.45,–,–,–,–,–,–,–
CNC(=O)[C@H]1O[C@@H](n2cnc3c(Nc4ccc5c(c4)C(C)(C)N([O])C5(C)C)ncnc32)[C@H](O)[C@@H]1O,800,> 10000,530,1.5,–,–,–,–,–,–,–
CNC(=O)[C@H]1O[C@@H](n2cnc3c(Nc4ccc5c(c4)C(C)(C)NC5(C)C)ncnc32)[C@H](O)[C@@H]1O,1170,> 10000,70,16,–,–,–,–,–,–,–
CNC(=O)[C@H]1O[C@@H](n2cnc3c(NCc4ccc(CNC(=O)c5cc(C(C)(C)C)c(O)c(C(C)(C)C)c5)cc4)ncnc32)[C@H](O)[C@@H]1O,105,> 10000,5.63,19,Active,inactive,inactive,–,–,–,–
CC1(C)CC(CNc2ncnc3c2ncn3[C@@H]2O[C@H](CO)[C@@H](O)[C@H]2O)C(C)(C)N1[O] (stereo partly drawn),–,> 10000,–,0.0024,–,–,–,–,50,400,–
CC1(C)c2ccc(C(=O)NCCc3ccc(Nc4ncnc5c4ncn5[C@@H]4O[C@H](CO)[C@@H](O)[C@H]4O)cc3)cc2C(C)(C)N1[O],–,–,–,–,–,–,–,–,7,3,–
CC1(C)CC(NC2NC=Nc3c2ncn3[C@@H]2O[C@H](CO)[C@@H](O)[C@H]2O)CC(C)(C)N1 (stereo partly drawn),–,–,–,0.063,–,–,–,–,–,–,–
CNC(=O)[C@H]1O[C@@H](n2cnc3c(NCc4cccc(I)c4)ncnc32)[C@H](O)[C@@H]1O [IB-MECA],–,–,–,–,Active,inactive,inactive,–,–,–,54.1
CNC(=O)[C@H]1O[C@@H](n2cnc3c(NCc4ccc(CNC(=O)c5cc(OC)c(OC)c(OC)c5)cc4)ncnc32)[C@H](O)[C@@H]1O,76.8,> 10000,5.04,15,Active,inactive,inactive,–,–,–,–
CNC(=O)[C@H]1O[C@@H](n2cnc3c(Nc4ccc(CCNC(=O)c5cc(C(C)(C)C)c(O)c(C(C)(C)C)c5)cc4)ncnc32)[C@H](O)[C@@H]1O,243,> 10000,45,5.4,–,–,–,–,–,–,–
CNC(=O)[C@H]1O[C@@H](n2cnc3c(NC4CC(C)(C)NC(C)(C)C4)ncnc32)[C@H](O)[C@@H]1O,960,> 10000,2480,0.39,–,–,–,–,–,–,–
CC1(C)c2ccc(NC3NC=Nc4c3ncn4[C@@H]3O[C@H](CO)[C@@H](O)[C@H]3O)cc2C(C)(C)N1[O] (stereo partly drawn),–,> 10000,–,–,–,–,–,–,–,–,–
CNC(=O)[C@H]1O[C@@H](n2cnc3c(NCc4ccc(CNC(=O)c5cc(C(C)(C)C)cc(C(C)(C)C)c5)cc4)ncnc32)[C@H](O)[C@@H]1O,128,> 10000,9.02,14,–,inactive,inactive,–,–,–,68.3
CC1(C)CC(NC2NC=Nc3c2ncn3[C@@H]2O[C@H](CO)[C@@H](O)[C@H]2O)CC(C)(C)N1[O] (stereo partly drawn),50,> 10000,8560,0.0058,–,–,–,–,–,–,–
CNC(=O)[C@H]1O[C@@H](n2cnc3c(Nc4ccc(CCNC(=O)c5cc(OC)c(OC)c(OC)c5)cc4)ncnc32)[C@H](O)[C@@H]1O,26.2,–,4.26,6.2,Active,inactive,inactive,27,–,–,–
CC1(C)NC(C)(C)c2cc(Nc3ncnc4c3ncn4[C@@H]3O[C@H](CO)[C@@H](O)[C@H]3O)ccc21,290,> 10000,280,1,–,–,–,–,–,–,–
